{"source": "PubChem BioAssay AID248", "about": "(DTP/NCI, 2004)", "tested_on": "L1210 leukemia ip in BDF1 mice, survival T/C", "assay": "NCI In Vivo Anticancer Drug Screen. Data for tumor model L1210 Leukemia (intraperitoneal) in B6D2F1 (BDF1) mice", "settings": "endpoint: mean survival time, higher = longer survival", "summary_of_the_method": "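Mice bearing the transplanted tumor received compound or vehicle. Survival of the treated group was divided by that of the vehicle-treated control group to give the ratio.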", "key": {"[1]": {"settings": "dose: 100.0 mg/kg/injection, schedule: Q01DX009 (ip), vehicle: Klucel (hydroxypropylcellulose) (HPC)"}, "[2]": {"settings": "dose: 200.0 mg/kg/injection, schedule: Q01DX009 (ip), vehicle: Klucel (hydroxypropylcellulose) (HPC)"}, "[3]": {"settings": "dose: 400.0 mg/kg/injection, schedule: Q01DX009 (ip), vehicle: Klucel (hydroxypropylcellulose) (HPC)"}}, "note": "Values joined by “and” are separate entries in the source; they are usually repeats but may differ in a detail not shown here. Equal values may be shown once. Inconclusive results and toxic doses are left out."}
{"smiles": "COC1=C(N=[N+]=[N-])C(=O)C(OC)=C(N=[N+]=[N-])C1=O", "values": [{"measurement": "T/C", "setting": "dose: 2.0 mg/kg/injection, schedule: Q01DX009 (ip), vehicle: carboxymethylcellulose (CMC)", "value": "93 % of control"}, {"measurement": "T/C", "setting": "dose: 2.5 mg/kg/injection, schedule: Q01DX001 (ip), vehicle: carboxymethylcellulose (CMC)", "value": "95 % of control"}, {"measurement": "T/C", "setting": "dose: 4.0 mg/kg/injection, schedule: Q01DX009 (ip), vehicle: carboxymethylcellulose (CMC)", "value": "98 % of control"}, {"measurement": "T/C", "setting": "dose: 5.0 mg/kg/injection, schedule: Q01DX001 (ip), vehicle: carboxymethylcellulose (CMC)", "value": "91 % of control"}, {"measurement": "T/C", "setting": "dose: 5.0 mg/kg/injection, schedule: Q04DX003 (ip), vehicle: carboxymethylcellulose (CMC)", "value": "93 % of control"}, {"measurement": "T/C", "setting": "dose: 8.0 mg/kg/injection, schedule: Q01DX009 (ip), vehicle: carboxymethylcellulose (CMC)", "value": "104 % of control"}, {"measurement": "T/C", "setting": "dose: 10.0 mg/kg/injection, schedule: Q01DX001 (ip), vehicle: carboxymethylcellulose (CMC)", "value": "95 % of control and 100 % of control"}, {"measurement": "T/C", "setting": "dose: 10.0 mg/kg/injection, schedule: Q04DX003 (ip), vehicle: carboxymethylcellulose (CMC)", "value": "110 % of control"}, {"measurement": "T/C", "setting": "dose: 20.0 mg/kg/injection, schedule: Q01DX001 (ip), vehicle: carboxymethylcellulose (CMC)", "value": "98 % of control"}, {"measurement": "T/C", "setting": "dose: 20.0 mg/kg/injection, schedule: Q04DX003 (ip), vehicle: carboxymethylcellulose (CMC)", "value": "90 % of control"}, {"measurement": "T/C", "setting": "dose: 30.0 mg/kg/injection, schedule: Q04DX003 (ip), vehicle: saline with Tween-80", "value": "93 % of control"}, {"measurement": "T/C", "setting": "dose: 36.25 mg/kg/injection, schedule: Q01DX009 (ip), vehicle: saline", "value": "114 % of control"}, {"measurement": "T/C", "setting": "dose: 45.0 mg/kg/injection, schedule: Q04DX003 (ip), vehicle: saline with Tween-80", "value": "104 % of control"}, {"measurement": "T/C", "setting": "dose: 65.0 mg/kg/injection, schedule: Q04DX003 (ip), vehicle: saline with Tween-80", "value": "100 % of control"}, {"measurement": "T/C", "setting": "dose: 72.5 mg/kg/injection, schedule: Q01DX009 (ip), vehicle: saline", "value": "100 % of control"}, {"measurement": "T/C", "setting": "dose: 95.0 mg/kg/injection, schedule: Q04DX003 (ip), vehicle: saline", "value": "94 % of control"}, {"measurement": "T/C", "setting": "dose: 145.0 mg/kg/injection, schedule: Q01DX009 (ip), vehicle: saline", "value": "86 % of control"}, {"measurement": "T/C", "setting": "dose: 145.0 mg/kg/injection, schedule: Q04DX003 (ip), vehicle: saline", "value": "92 % of control"}]}
{"smiles": "Cc1c2ccccc2c(CCl)c2ccc3ccccc3c12", "values": [{"measurement": "T/C", "setting": "dose: 12.5 mg/kg/injection, schedule: Q01DX009 (ip), vehicle: carboxymethylcellulose (CMC)", "value": "110 % of control"}, {"measurement": "T/C", "setting": "dose: 25.0 mg/kg/injection, schedule: Q01DX009 (ip), vehicle: carboxymethylcellulose (CMC)", "value": "113 % of control"}]}
{"smiles": "CSC(N)=Nc1ccccc1", "values": [{"measurement": "T/C", "setting": "dose: 87.5 mg/kg/injection, schedule: Q01DX009 (ip), vehicle: saline", "value": "96 % of control"}, {"measurement": "T/C", "setting": "dose: 175.0 mg/kg/injection, schedule: Q01DX009 (ip), vehicle: saline", "value": "100 % of control"}]}
{"smiles": "CC1CN1P(=O)(N1CC1C)N1CC1C", "note": "(stereo unspecified)", "values": [{"measurement": "T/C", "setting": "dose: 13.3 mg/kg/injection, schedule: Q01DX009 (ip), vehicle: saline", "value": "124 % of control"}, {"measurement": "T/C", "setting": "dose: 19.0 mg/kg/injection, schedule: Q01DX009 (ip), vehicle: saline", "value": "124 % of control"}, {"measurement": "T/C", "setting": "dose: 66.0 mg/kg/injection, schedule: Q01DX001 (ip), vehicle: saline", "value": "163 % of control"}, {"measurement": "T/C", "setting": "dose: 99.0 mg/kg/injection, schedule: Q01DX009 (ip), vehicle: saline", "value": "88 % of control"}, {"measurement": "T/C", "setting": "dose: 150.0 mg/kg/injection, schedule: Q01DX001 (ip), vehicle: saline", "value": "159 % of control"}]}
{"smiles": "CCCCC(CC)COC(=O)CC(O)C(=O)OCC(CC)CCCC", "note": "(stereo unspecified)", "values": [{"measurement": "T/C", "setting": "[1]", "value": "103 % of control"}, {"measurement": "T/C", "setting": "[2]", "value": "100 % of control"}, {"measurement": "T/C", "setting": "[3]", "value": "103 % of control"}]}
{"smiles": "CSc1ccc(/C=C/c2ccc([N+](=O)[O-])cc2)cc1", "values": [{"measurement": "T/C", "setting": "[1]", "value": "97 % of control"}, {"measurement": "T/C", "setting": "dose: 100.0 mg/kg/injection, schedule: Q04DX003 (ip), vehicle: Klucel (hydroxypropylcellulose) (HPC)", "value": "91 % of control"}, {"measurement": "T/C", "setting": "[2]", "value": "88 % of control"}, {"measurement": "T/C", "setting": "dose: 200.0 mg/kg/injection, schedule: Q04DX003 (ip), vehicle: Klucel (hydroxypropylcellulose) (HPC)", "value": "93 % of control"}, {"measurement": "T/C", "setting": "[3]", "value": "92 % of control"}, {"measurement": "T/C", "setting": "dose: 400.0 mg/kg/injection, schedule: Q04DX003 (ip), vehicle: Klucel (hydroxypropylcellulose) (HPC)", "value": "88 % of control"}]}
